Series [1] relates to AR subcellular distribution in VCaP cells. Kind of series: High content imaging of AR N/C ratio, VCaP cells. The note with it: R1881 0.1 nM, Enz 20 μM, 10 20 μM.
Series [2] concerns AR recruitment to KLK3 and NKX3-1 regulatory regions in LNCaP-AR cells. Kind of series: Chromatin immunoprecipitation assay, LNCaP-AR cells. Format: cell-based. Conditions: Enz 10 μM, Bic 10 μM, 10 20 μM, R1881 0.1 nM.
Series [3] concerns AR subcellular distribution in HEK293 cells expressing wt-AR. Kind of series: High content imaging of AR N/C ratio, HEK293 cells expressing wt-AR. Conditions: R1881 0.1 nM, Enz 20 μM, 10 20 μM.
The test system of series [4] is nuclear AR in HEK293 cells expressing wt-AR. The series is described as follows: Cellular fractionation assay, HEK293 cells expressing wt-AR. In kind it is cell-based. Conditions: 4 hours, R1881 0.1 nM.
Series [5] deals with AR target gene expression in LNCaP-AR cells. Kind of series: Real-time PCR of AR target genes in LNCaP-AR cells. Format: cell-based. The note with it: CBs 20 μM, Enz 10 μM; for AR target gene expression, absence of R1881: Bic 10 μM. For orientation: Real-time PCR tracks product formation cycle by cycle.
A further series deals with LNCaP-AR cells. The series is described as follows: Prostate cancer cell proliferation assay, LNCaP-AR. Conditions: 7 days, increasing doses, no R1881.
A further series in a line: in vivo. The note with it: NSG, mouse, ip.

Results on three molecules are retold here after publication PMC5030124 (Nature chemical biology, 2016).

For `C[C@]1(O)CC[C@H]2[C@@H]3CCC4=CC(=O)CCC4=C3C=C[C@@]21C` [R1881], the “AR nuclear-to-cytoplasmic (N/C) ratio” value in series [1] and in series [3] was “increase in AR nuclear-to-cytoplasmic (N/C) ratio” each time. Further, in series [2], the “recruitment of AR to DNA (ChIP)” value is “facilitated AR recruitment to DNA”. Also, in series [4], the “AR in nuclear and cytoplasmic fractions” value was “movement of AR from the cytoplasmic to nuclear fraction”.

As to `CC(O)(CS(=O)(=O)c1ccc(F)cc1)C(=O)Nc1ccc(C#N)c(C(F)(F)F)c1` (stereo not drawn) [Bic, bicalutamide], in series [5], the “AR target gene expression, absence of R1881” value is on record as “partial agonist”. Further, the “recruitment of AR to DNA (ChIP)” value in series [2] is reported as “facilitated AR recruitment to DNA”. Besides, the “cell growth of LNCaP-AR cells” value in the series with LNCaP-AR cells is on record as “promoted cellular proliferation”.

As for `CNC(=O)c1ccc(N2C(=S)N(c3ccc(C#N)c(C(F)(F)F)c3)C(=O)C2(C)C)cc1F` [Enz, enzalutamide], in series [5], the “AR target gene expression, absence of R1881” value is recorded as “did not promote AR target gene transcription”. Besides, in series [5] (R1881 0.1 nM), the “AR target gene expression, presence of R1881” value was “reversed androgen-stimulated gene expression”. The “recruitment of AR to DNA (ChIP)” value in series [2] is “without effect”. The “cell growth of LNCaP-AR cells” value in the series with LNCaP-AR cells was “without effect”. The MTD in the series “in vivo” is 15 mg/kg.
